Common to all, as to format: binding
Assay [1] addresses T1, PCSK9 (Homo sapiens, UniProt Q8NBP7).
T1 construct: purchased
The experiment in a line: PCSK9 Alexa FRET Plus TR-FRET assay. As to the method: A solution containing 1 nM biotinylated PCSK9+2.5 nM Lance Streptavidin Europium (Strep-Eu) is made in 50 mM HEPES pH 7.4, 0.15 M NaCl, 5 mM CaCl2, 0.01% BSA, and 0.01% Surfactant P20. A separate solution containing 1920 nM of the AlexaFluor tagged cyclic peptide is made in the same buffer system. An Echo is used to transfer 0.075 ul of compound plus 0.675 ul of DMSO to each well of an assay plate followed by the addition of 15 ul of PCSK9+Stept-Eu and 15 ul of AF peptide. The final assay volume is 30.750 ul containing 0.5 nM PCSK9, 1.25 nM Strep-Eu, and 960 nM AF cyclic peptide. The reaction is incubated at room temperature for at least two hours prior to fluorescence measurements using an Envision Multilabel Reader. IC50 values are determined by fitting data to a sigmoidal dose-response curve using nonlinear regression. Ki is then calculated from the IC50 and the KD of AF cyclic peptide. Counts (B-counts) of the europium-labeled PCSK9 are followed to observe if compounds are adversely affecting PCSK9. A fall off of the B-counts is likely indicates a false positive of inhibition. Data from this procedure is reported as “P=‘numerical value’ (nanomolar)”

The target in assay [2] is T1, PCSK9. The experiment in a line: PCSK9 Alexa FRET Standard TR-FRET assay. As for the experimental part:
A solution containing 1 nM biotinylated PCSK9+2.5 nM Lance Streptavidin Europium (Strep-Eu) is made in 50 mM HEPES pH 7.4, 0.15 M NaCl, 5 mM CaCl2, 0.01% BSA, and 0.01% Surfactant P20. […] An Echo is used to transfer 0.750 ul of compound to an assay plate followed by the addition of 15 ul of PCSK9+Stept-Eu and 15 ul of AF peptide. […] The reaction is incubated at room temperature for at least two hours prior to fluorescence measurements using an Envision Multilabel Reader. IC50 values are determined by fitting data to a sigmoidal dose-response curve using nonlinear regression. Ki is then calculated from the Ic50 and the KD of AF cyclic peptide. Counts (B-counts) of the europium-labeled PCSK9 are followed to observe if compounds are adversely PCSK9. A fall off of the B-counts is likely indicates a false positive of inhibition. Data from this procedure is reported as “A=‘numerical value’ (nanomolar)”

Assay [3] has as its target T1, PCSK9. The assay can be described thus: KD of the AlexaFluor647 tagged cyclic peptide probes for PCSK9. Particulars: AF tagged cyclic peptide probe, interaction with PCSK9.
Setting [4] is: displacement of AlexaFluor647 tagged cyclic peptide Reagent B (960 nM) from biotinylated PCSK9 (0.5 nM), read-out: Plus / P (Alexa Fret plus standard TR Fret), Ki calculated from the IC50 and the KD of AF cyclic peptide.
Where [5] appears, read: displacement of AlexaFluor647 tagged cyclic peptide Reagent A (20 nM) from biotinylated PCSK9 (0.5 nM), read-out: A (standard TR Fret), Ki calculated from the IC50 and the KD of AF cyclic peptide.

This is an account of results in US11306125B2, “PCSK9 antagonists bicyclo-compounds” (Merck Sharp & Dohme Corp., priority 2018, dated 2022).

Starred links: 1 amine or outer side, 2 acyl side, 3 side chain; linkers in the order of their positions; H or OH if unused. Positions of bridges follow the written chain, without caps; N, C: chain ends. Non-standard residues stand in square brackets, D forms with d. Residues, ends and D or L forms follow the SMILES beside them. *: point of attachment. X2 = CC1(C)C(/C=C/C=C/C=C2\N(CCCS(=O)(=O)O)c3ccc(S(=O)(=O)O)cc3C2(C)CCCCCC(=O)*)=[N+](CCCS(=O)(=O)[O-])c2ccc(S(=O)(=O)O)cc21; Phe(3-CH2NH2) = O=C([C@H](Cc1cccc(CN[*:3])c1)N[*:1])[*:2]; Me3N+(CH2)2O(CH2)2O(CH2)2CO = C[N+](C)(C)CCOCCOCCC(=O)*; Trp(5-F) = N[C@@H](Cc1c[nH]c2ccc(F)cc12)C(=O)O; X1 = O=C(CCC(=O)[*:1])NCc1ccc(CCN[*:2])cc1; mXylylene = c1cc(C[*:1])cc(C[*:2])c1; AEF = NCCOc1ccc(C[C@H](N)C(=O)O)cc1; Glutaryl = O=C(CCCC(=O)[*:2])[*:1]; NMeE = CN[C@@H](CCC(=O)O)C(=O)O; αMeP = C[C@@]1(C(=O)O)CCCN1; dDap = NC[C@@H](N)C(=O)O; Dap = NC[C@H](N)C(=O)O; Boc = CC(C)(C)OC(=O)*; Mpa = O=C(O)CCS; tBu = CC(C)(C)*

T1 sequence (Q8NBP7 153-692): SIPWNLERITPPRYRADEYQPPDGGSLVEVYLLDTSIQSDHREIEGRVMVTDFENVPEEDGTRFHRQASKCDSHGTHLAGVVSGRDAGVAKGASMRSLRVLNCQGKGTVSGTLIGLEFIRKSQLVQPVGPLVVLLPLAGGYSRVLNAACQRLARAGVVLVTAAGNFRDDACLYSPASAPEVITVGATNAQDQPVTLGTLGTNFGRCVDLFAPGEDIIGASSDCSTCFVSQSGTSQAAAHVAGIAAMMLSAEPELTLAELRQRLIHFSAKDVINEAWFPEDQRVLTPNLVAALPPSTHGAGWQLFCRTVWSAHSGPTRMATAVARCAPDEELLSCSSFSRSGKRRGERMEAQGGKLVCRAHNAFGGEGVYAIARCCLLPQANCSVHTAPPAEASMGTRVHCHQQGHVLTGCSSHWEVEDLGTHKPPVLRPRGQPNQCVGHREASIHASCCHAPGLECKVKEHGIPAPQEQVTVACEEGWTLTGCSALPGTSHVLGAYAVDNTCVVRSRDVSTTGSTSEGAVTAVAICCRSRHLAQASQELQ

As for `COc1ccc(C[C@@H]2NC(=O)[C@H]([C@@H](C)O)NC(=O)[C@@H]3[C@@H]4CCN3C(=O)[C@H](Cc3c[nH]c5ccc(F)cc35)NC(=O)[C@H](Cc3cccc(c3)CNC(=O)CO4)NC(=O)[C@@H](C)NC(=O)[C@H](CN)NC(=O)CCC(=O)NCc3ccc(cc3)CCNC(=O)[C@]3(C)CCCN3C2=O)cc1` [Ex-B01], the Ki was 1.24 nM on PCSK9 [1] and 2.04 nM on PCSK9 [2].
In the same order, the values of `COc1ccc(C[C@@H]2NC(=O)[C@H]([C@@H](C)O)NC(=O)[C@@H]3[C@@H]4CCN3C(=O)[C@H](Cc3c[nH]c5ccc(F)cc35)NC(=O)[C@H](Cc3cccc(c3)CNC(=O)CO4)NC(=O)[C@@H](C)NC(=O)[C@H](CNC(=O)CCOCCOCC[N+](C)(C)C)NC(=O)CCC(=O)NCc3ccc(cc3)CCNC(=O)[C@]3(C)CCCN3C2=O)cc1` [Ex-B02] are 2.19 nM and 4.02 nM.
In the same order, the values of `COc1ccc(C[C@@H]2NC(=O)[C@H]([C@@H](C)O)NC(=O)[C@@H]3[C@@H]4CCN3C(=O)[C@H](Cc3c[nH]c5ccc(F)cc35)NC(=O)[C@H](Cc3cccc(c3)CNC(=O)CO4)NC(=O)C(CN)NC(=O)[C@H](C)NC(=O)CCC(=O)NCc3ccc(cc3)CCNC(=O)[C@]3(C)CCCN3C2=O)cc1` (stereo partly shown) [Ex-B03] are 0.008 nM and < 1.26 nM.
For `COc1ccc(C[C@@H]2NC(=O)[C@H]([C@@H](C)O)NC(=O)C[C@@H]3[C@@H]4CCN3C(=O)[C@H](Cc3c[nH]c5ccc(F)cc35)NC(=O)[C@H](Cc3cccc(c3)CNC(=O)CO4)NC(=O)[C@@H](CNC(=O)CCOCCOCC[N+](C)(C)C)NC(=O)[C@H](C)NC(=O)CCC(=O)NCc3ccc(cc3)CCNC(=O)[C@]3(C)CCCN3C2=O)cc1` [Ex-B04], the Ki at PCSK9 [1] (setting [4]) was 0.02 nM; at PCSK9 [2] (setting [5]), < 1.26 nM.
As for `COc1ccc(C[C@@H]2NC(=O)[C@H]([C@@H](C)O)NC(=O)[C@@H]3CCC(=O)NCc4cccc(c4)C[C@H](NC(=O)[C@@H](C)NC(=O)[C@H](C)NC(=O)[C@@H](NC(C)=O)CC(=O)NCCOc4ccc(cc4)C[C@@H](C(N)=O)NC(=O)[C@]4(C)CCCN4C2=O)C(=O)N[C@@H](Cc2c[nH]c4ccc(F)cc24)C(=O)N3C)cc1` [Ex-C01] (Ac-DA[dA][Phe(3-CH2NH2)][Trp(5-F)][NMeE]TY(Me)[αMeP][AEF]-NH2; lactam 1-10, 4-6), the Ki at PCSK9 [2] (setting [5]) was 27.8 nM.
On the same count and under the same terms, as for `COc1ccc(C[C@@H]2NC(=O)[C@H]([C@@H](C)O)NC(=O)[C@@H]3CCC(=O)NCc4cccc(c4)C[C@H](NC(=O)[C@@H](C)NC(=O)CCCC(=O)NCCOc4ccc(cc4)C[C@@H](C(N)=O)NC(=O)[C@]4(C)CCCN4C2=O)C(=O)N[C@@H](Cc2c[nH]c4ccc(F)cc24)C(=O)N3C)cc1` [Ex-C02] ([dA][Phe(3-CH2NH2)][Trp(5-F)][NMeE]TY(Me)[αMeP][AEF]-NH2; lactam 2-4; linker N-8 via Glutaryl), the figure is 151 nM; as for `COc1ccc(C[C@@H]2NC(=O)[C@H]([C@@H](C)O)NC(=O)[C@@H]3CCC(=O)NCc4cccc(c4)C[C@H](NC(=O)[C@@H](C)NC(=O)[C@H](CNC(=O)CCOCCOCC[N+](C)(C)C)NC(=O)CCC(=O)NCc4ccc(cc4)CCNC(=O)[C@]4(C)CCCN4C2=O)C(=O)N[C@@H](Cc2c[nH]c4ccc(F)cc24)C(=O)N3C)cc1` [Ex-C03] ([Dap](Me3N+(CH2)2O(CH2)2O(CH2)2CO)[dA][Phe(3-CH2NH2)][Trp(5-F)][NMeE]TY(Me)[αMeP]; lactam 3-5; linker N-C via X1), 18.4 nM.
`COc1ccc(C[C@@H]2NC(=O)[C@H]([C@@H](C)O)NC(=O)[C@@H]3CCC(=O)NCc4cccc(c4)C[C@H](NC(=O)[C@@H](C)NC(=O)[C@H](CN)NC(=O)CCC(=O)NCc4ccc(cc4)CCNC(=O)[C@]4(C)CCCN4C2=O)C(=O)N[C@@H](Cc2c[nH]c4ccc(F)cc24)C(=O)N3C)cc1` [Ex-C04] ([Dap][dA][Phe(3-CH2NH2)][Trp(5-F)][NMeE]TY(Me)[αMeP]; lactam 3-5; linker N-C via X1): the Ki on PCSK9 [2] (setting [5]) is 4.24 nM.
In the case of `COc1ccc(C[C@@H]2NC(=O)[C@H]([C@@H](C)OC(C)(C)C)NC(=O)[C@@H]3CCC(=O)NCc4cccc(c4)C[C@H](NC(=O)[C@@H](CNC(=O)OC(C)(C)C)NC(=O)[C@H](C)NC(=O)CCC(=O)NCc4ccc(cc4)CCNC(=O)[C@]4(C)CCCN4C2=O)C(=O)N[C@@H](Cc2c[nH]c4ccc(F)cc24)C(=O)N3C)cc1` [Ex-C05] (A[dDap](Boc)[Phe(3-CH2NH2)][Trp(5-F)][NMeE]T(tBu)Y(Me)[αMeP]; lactam 3-5; linker N-C via X1), the values for the Ki at PCSK9 [1] (setting [4]) and at PCSK9 [2] (setting [5]) were 4.37 nM and < 1.26 nM, respectively.
As for `COc1ccc(C[C@@H]2NC(=O)[C@H]([C@@H](C)O)NC(=O)[C@@H]3CCC(=O)NCc4cccc(c4)C[C@H](NC(=O)[C@@H](CN)NC(=O)[C@H](C)NC(=O)CCC(=O)NCc4ccc(cc4)CCNC(=O)[C@]4(C)CCCN4C2=O)C(=O)N[C@@H](Cc2c[nH]c4ccc(F)cc24)C(=O)N3C)cc1` [Ex-C06] (A[dDap][Phe(3-CH2NH2)][Trp(5-F)][NMeE]TY(Me)[αMeP]; lactam 3-5; linker N-C via X1), at PCSK9 [2] (setting [5]), the Ki was 15.9 nM.
Regarding `COc1ccc(C[C@@H]2NC(=O)[C@H]([C@@H](C)O)NC(=O)[C@@H]3CCC(=O)NCc4cccc(c4)C[C@H](NC(=O)[C@@H](CNC(=O)CCOCCOCC[N+](C)(C)C)NC(=O)[C@H](C)NC(=O)CCC(=O)NCc4ccc(cc4)CCNC(=O)[C@]4(C)CCCN4C2=O)C(=O)N[C@@H](Cc2c[nH]c4ccc(F)cc24)C(=O)N3C)cc1` [Ex-C07] (A[dDap](Me3N+(CH2)2O(CH2)2O(CH2)2CO)[Phe(3-CH2NH2)][Trp(5-F)][NMeE]TY(Me)[αMeP]; lactam 3-5; linker N-C via X1), at PCSK9 [2] (setting [5]), the Ki was 7.17 nM.
`COc1ccc(C[C@@H]2NC(=O)[C@H]([C@H](C)O)NC(=O)[C@@H]3[C@@H]4CCN3C(=O)[C@H](Cc3c[nH]c5ccc(F)cc35)NC(=O)[C@H](Cc3cccc(c3)Cn3cc(nn3)CO4)NC(=O)[C@@H](C)NC(=O)[C@H](C)NC(=O)[C@@H](NC(C)=O)CC(=O)NCc3ccc(cc3)C[C@@H](C(N)=O)NC(=O)[C@]3(C)CCCN3C2=O)cc1` [Ex-OT-03]: the Ki is 0.32 nM at PCSK9 [1] (setting [4]) and < 1.26 nM at PCSK9 [2] (setting [5]).
On to `COc1ccc(C[C@@H]2NC(=O)[C@H]([C@H](C)O)NC(=O)[C@@H]3[C@@H]4CCN3C(=O)[C@H](Cc3c[nH]c5ccc(F)cc35)NC(=O)[C@H](Cc3cccc(c3)Cn3cc(nn3)CO4)NC(=O)[C@@H](C)NC(=O)[C@H](CCCC[N+](C)(C)C)NC(=O)CCC(=O)NCc3ccc(cc3)C[C@@H](C(N)=O)NC(=O)[C@]3(C)CCCN3C2=O)cc1` [Ex-OT-04], for which the Ki at PCSK9 [1] (setting [4]) was 0.32 nM; on PCSK9 [2] (setting [5]), < 1.26 nM.
With `COc1ccc(C[C@@H]2NC(=O)[C@H]([C@H](C)O)NC(=O)[C@@H]3[C@@H]4CCN3C(=O)[C@H](Cc3c[nH]c5ccc(F)cc35)NC(=O)[C@H](Cc3cccc(c3)Cn3cc(nn3)CO4)NC(=O)[C@@H](C)NC(=O)[C@H](CNC(=O)CCOCCOCC[N+](C)(C)C)NC(=O)CCC(=O)NCc3ccc(cc3)C[C@@H](C(N)=O)NC(=O)[C@]3(C)CCCN3C2=O)cc1` [Ex-OT-05], the Ki at PCSK9 [1] was 0.19 nM; on PCSK9 [2] it was < 1.26 nM.
The matching figures for `COc1ccc(C[C@@H]2NC(=O)[C@H]([C@@H](C)O)NC(=O)[C@@H]3[C@@H]4CCN3C(=O)[C@H](Cc3c[nH]c5ccc(F)cc35)NC(=O)[C@H](Cc3cccc(c3)Cn3cc(nn3)CO4)NC(=O)[C@@H](C)NC(=O)[C@H](CNC(=O)CCOCCOCC[N+](C)(C)C)NC(=O)CCC(=O)NCc3ccc(cc3)CCNC(=O)[C@]3(C)CCCN3C2=O)cc1` [Ex-OT-06]: 0.29 nM and < 1.26 nM.
Turning to `CC1(C)C(/C=C/C=C/C=C2\N(CCCS(=O)(=O)O)c3ccc(S(=O)(=O)O)cc3C2(C)CCCCCC(=O)NCCCC[C@@H]2NC(=O)CCSCc3cccc(c3)CSC[C@@H](C(N)=O)NC(=O)[C@]3(C)CCCN3C(=O)[C@H](Cc3ccc(O)cc3)NC(=O)[C@H](Cc3c[nH]cn3)NC(=O)[C@H](CC(=O)O)NC(=O)[C@H](Cc3c[nH]c4ccc(F)cc34)NC(=O)[C@H](Cc3c[nH]c4ccc(F)cc34)NC(=O)CNC2=O)=[N+](CCCS(=O)(=O)[O-])c2ccc(S(=O)(=O)O)cc21` (stereo partly shown) [Reagent A] ([Mpa]K(X2)G[Trp(5-F)][Trp(5-F)]DHY[αMeP]C-NH2; linker 1-10 via mXylylene), binding at PCSK9 [3] was put at a Kd of 83 nM.
